Data set [1] is described as follows: Thixotropy of hydrogel, recovery after vortexing. It counts as physicochemical. Conditions: hydrogel disturbed by vortexing.
Data set [2] in a line: TGA degradation temperature. It counts as physicochemical.
Data set [3] can be described thus: Gelation / hydrogel formation, minimum gelation concentration in water, buffered saline or PBS. The conditions noted are these: for Self-assembly into hydrogels / scaffolds: aqueous conditions; for Self-assembly into hydrogels / scaffolds / Minimum gelation concentration in buffered saline: buffered saline. It counts as physicochemical. How it is done: Preparation of Hydrogels.
Lyophilized peptide powder was dissolved in milliQ water and mixed for 30 seconds by vortexing to obtain a homogenous solution. 10% volume of 10-times phosphate-buffered saline was subsequently added and mixed by pipetting. Gelation occurred between seconds (PBS) to overnight (water), depending on the peptide concentration and solution used.

Data set [4] can be described thus: Circular dichroism spectroscopy, secondary structure transitions with increasing peptide concentration. Conditions: for Secondary structure transitions: Table 1; for Secondary structure / conformational transitions (circular dichroism): increasing peptide concentration. Type of data set: physicochemical. As for the experimental part:
Circular Dichroism Spectroscopy.
CD spectra were collected with a Jasco CD spectrophotometer fitted with a temperature controller, using quartz suprasil cuvettes with an optical path length of 1 mm. All samples were prepared in milIQ water and equilibrated for an hour at room temperature before measurement. Data acquisition was performed for wavelength range from 190-260 nm with a spectral bandwidth of 1.0 nm. All spectra were baseline-corrected using milliQ water as baseline. The mean residue ellipticity (MRE) was calculated as follows:
[θ]=θ/(10·N·c·l) where […] represents the ellipticity in millidegrees, N the number of amino acid residues, c the molar concentration in mol·L-1, and I the cell path length in cm.

Data set [5] in a line: Gelation in dimethylsulfoxide. It counts as physicochemical.
Data set [6] relates to 8 cm×8 cm excisional full thickness wound. The experiment in a line: Porcine wound healing study of peptide hydrogel wound dressings. It counts as in vivo. The conditions noted are these: hydrogel applied weekly for 6 weeks. As for the experimental part:
A porcine wound healing study was performed to evaluate the peptide hydrogels for wound healing applications. An 8 cm×8 cm excisional full thickness wound was created on the back of the animal, and three of the peptide hydrogels were applied using a polydimethylsiloxane mould. Wound dressing changes were carried out weekly for 6 weeks, with application of fresh hydrogel.

A short description of data set [7]: Rheology, storage modulus of hydrogels. Type of data set: physicochemical. The conditions noted are these: hydrogels prepared in buffered saline. As for the experimental part:
Hydrogel samples were prepared in polydimethysiloxane moulds to obtain approximately 1 mm thick, 8 mm diameter discs. Dynamic strain and oscillatory frequency sweep experiments were carried out using the ARES-G2 Rheometer (TA Instruments, Piscataway, N.J.) with 8 mm titanium parallel plate geometry. The readings of 3 samples were averaged for each condition.

The subject of data set [8] is embryonic stem cells H1 and H9. The data set is described as follows: 3D culture of pluripotent stem cells encapsulated in hydrogel droplets. Type of data set: cell-based, human. Conditions: for Colony formation of single cell suspensions in hydrogel: H1 and H9, cell encapsulation densities exceeding 5×10^6 cells/mL. As for the experimental part: (§1) 3D Encapsulation of Stem Cells.
(§2) H1 embryonic stem cells cultured on Matrigel were dissociated into single cells using TrypLE Express, and re-suspended in 50% mTESR in PBS at an approximate concentration of 4×10^6, 10^7 or 1.6×10^7 cells/mL. 0.5 μL of cells was injected into a droplet of 2 μL 10 mg/mL peptide solution. Warmed culture media (mTESR) containing ROCK inhibitor Y-27632 was added for the first day and replaced by either mTESR or endoderm differentiation media subsequently. The endoderm differentiation protocol was adapted from Spence et al (2011). Briefly, the encapsulated cells were exposed to RPMI media containing 100 ng/mL Activin A, 2 mM glutamax, 1% penicillin-streptomycin and increasing concentrations of defined fetal bovine serum. After 3 days, the hydrogel droplets were washed with RPMI and incubated in hindgut differentiation media (RPMI media containing 1% defined fetal bovine serum, 1% penicillin-streptomycin, 2 mM glutamax, 500 ng/mL FGF4 and 500 ng/mL Wnt3A.
Immunohistochemistry and Confocal Microscopy Imaging.
Cell samples were fixed in 4% paraformaldehyde for 15 minutes and permeabilized in 0.01% Triton-X for 10 minutes. The encapsulated human embryonic stem cells were incubated at 4° C. overnight in 5% Bovine-Serum Albumin containing primary antibodies. The corresponding secondary antibodies and DAPI were applied for 90 minutes before the samples were imaged. Confocal microscopy was performed using a Zeiss LSM 510 microscope at the Institute of Medical Biology Microscopy Unit (A*STAR, Singapore).

Data set [9] has as its system H1 human embryonic stem cells. The experiment in a line: Chromosomal aberrations after 5 passages of 3D culture. It counts as cell-based. As for the experimental part: as §1, §2
In data set [10] the test system is H9 embryonic stem cells. The experiment in a line: 3D endoderm / hindgut differentiation of encapsulated stem cells (H9). It counts as cell-based, human. The conditions noted are these: H9 in 8 mg/mL hydrogel droplets.

The values that follow come from US20220127565A1, “A Self-Assembling Short Amphiphilic Peptide And Related Methods And Uses” (Agency for Science, Technology and Research, priority 2019, published 2022).

Residues, ends and D or L forms follow the SMILES beside them.

In the case of `CC[C@H](C)[C@H](NC(=O)[C@@H](NC(=O)[C@H](CC(=O)O)NC(C)=O)C(C)C)C(N)=O` [Ac-DVI-NH2] (Ac-Asp-Val-Ile-NH2), the “Standing time to return to gel state after vortexing” value in [1] was determined as 10 min. Besides, the “TGA Degradation Temperature” value in data set [2] is 321.5 °C. In [3], the “[Peptide] min, PBS” value is 9.9 mg/mL; the “Self-assembly into hydrogels / scaffolds” value was “self-assemble into nanofibrous scaffolds”; the “[Peptide] min, water” value stood at 11.6 mg/mL.
As for `CC[C@H](C)[C@H](NC(C)=O)C(=O)N[C@H](C(=O)N[C@@H](CC(=O)O)C(=O)O)C(C)C` [Ac-IVD, reference compound] (Ac-Ile-Val-Asp-OH; C-terminus assumed), the “TGA Degradation Temperature” value in data set [2] was 323.6 °C. Moreover, in [3], the “[Peptide] min, PBS” value came to 19.2 mg/mL and the “[Peptide] min, water” value amounted to 40.8 mg/mL.
For `CC[C@H](C)[C@H](NC(C)=O)C(=O)N[C@H](C(=O)N[C@@H](CC(=O)O)C(N)=O)C(C)C` [Ac-IVD-NH2, reference compound] (Ac-Ile-Val-Asp-NH2), the “TGA Degradation Temperature” value in [2] is 328.5 °C. In data set [3], the “[Peptide] min, PBS” value stood at 33.9 mg/mL and the “[Peptide] min, water” value was 44.9 mg/mL.
With `CC[C@H](C)[C@H](NC(C)=O)C(=O)N[C@H](C(=O)N[C@@H](CCCCN)C(N)=O)C(C)C` [Ac-IVK-NH2, reference compound] (Ac-Ile-Val-Lys-NH2), the Secondary structure transitions entry in data set [4] is listed as “Yes”. For the same molecule, the “Minimum gelation concentration in buffered saline” value (“Minimum gelation concentration” below) in data set [3] is listed as above 30 mg/mL.
Regarding `CC[C@H](C)[C@H](NC(=O)[C@@H](NC(=O)[C@H](CCCCN)NC(C)=O)C(C)C)C(N)=O` [Ac-KVI-NH2] (Ac-Lys-Val-Ile-NH2), in [4], the Secondary structure transitions result is “Yes” and the “Secondary structure / conformational transitions (circular dichroism)” value is “same secondary structure transitions as their parent sequences”. For the same molecule, in data set [3], the “Minimum gelation concentration” value was above 30 mg/mL.
For the molecule Ac-GAVLI-NH2 [Ac-GAVLI-NH2], the “Gel formation in dimethylsulfoxide” value in data set [5] is “thixotrophic gels”.
Take Ac-HGAVIA-NH2 [Ac-HGAVIA-NH2]: the “Gel formation in dimethylsulfoxide” value in [5] is on record as “thixotrophic gels”.
Ac-HGAVLI-NH2 [Ac-HGAVLI-NH2]: in data set [5], the “Gel formation in dimethylsulfoxide” value is recorded as “thixotrophic gels”. In [6], the “Reduction of wound size” value is reported as “effective reduction of wound size”.
Regarding “Ac-ILVAGK-NH2 [Ac-ILVAGK-NH2, reference compound]”, the Secondary structure transitions entry in data set [4] is on record as “Yes”. Moreover, the “Storage moduli of hydrogels” value in data set [7] is listed as around 10 kPa. For the same molecule, in data set [8], the “Colony formation of single cell suspensions in hydrogel” value was “several colonies developed”. The “Minimum gelation concentration” value in [3] was found to be 3 mg/mL.
Consider Ac-KGAVLI-NH2 [Ac-KGAVLI-NH2], for which, in data set [4], the Secondary structure transitions result is “Yes” and the “Secondary structure / conformational transitions (circular dichroism)” value is given as “same secondary structure transitions as their parent sequences”. In [9], the “Mutagenicity, chromosomal aberrations” value was “non-mutagenic”. Further, in data set [8] (2×10^6 cells/mL), the “Colony formation at lower cell seeding densities” value was “formation of several colonies within a single droplet”. For the same molecule, in data set [8], the “Colony formation of single cell suspensions in hydrogel” value is “more likely to aggregate into a single colony”. In addition, the “Pluripotency, staining of Oct4 and Tral-60 biomarkers” value in data set [8] (cultured in defined mTESR media) is “retained their pluripotency”. In data set [8] (day 7, bioprinted hydrogel droplets encapsulating cells), the “Retention of the expanding colonies” value is given as “higher retention of the expanding colonies”. For the same molecule, the “Cell migration and consistency in generating single colonies” value in [8] (synthetic 3D stem cell culture substrate, compared to Gen1 analog) is “enhanced cell migration and better consistency in generating single colonies”. The “Minimum gelation concentration” value in data set [3] was 3 mg/mL. Further, in data set [10] (day 9), the “Expression of hindgut biomarker Cdx2” value is reported as “expression of hindgut biomarker Cdx2 was observed”. Also, the “Cells expressing Sox17, flow cytometry” value in data set [10] (definitive endoderm differentiation) was found to be 90%. For the same molecule, in data set [6], the “Reduction of wound size” value was “effective reduction of wound size”.
With Ac-SGAVIA-NH2 [Ac-SGAVIA-NH2], the “Gel formation in dimethylsulfoxide” value in data set [5] is reported as “thixotrophic gels”.
For H-KGAVLI-NH2 [KGAVLI-NH2], in [4], the Secondary structure transitions entry is “Yes” and the “Secondary structure / conformational transitions (circular dichroism)” value is listed as “same conformational transitions”. In addition, in [3], the “Self-assembly into hydrogels / scaffolds” value is reported as “forms hydrogels in buffered saline” and the “Minimum gelation concentration” value is 20 mg/mL.
For H-SGAVLI-NH2 [SGAVLI-NH2], the “Gel formation in dimethylsulfoxide” value in data set [5] is given as “thixotrophic gels”. For the same molecule, the “Reduction of wound size” value in [6] is given as “effective reduction of wound size”.
